The target in experiment [1] is T1, LINE1 reverse transcriptase (Homo sapiens, UniProt O00370).
T1 construct: expressed in transfected cells
Put plainly: Stable artificial-intron Cis LINE1 reporter assay (HeLa Tet-On 3G). In kind it is cell-based. The following applies: HeLa L1 reporter cells, doxycycline induced, 72 h; read-out: IC50 for inhibition of FLuc luminescence. From the text:
A stable HeLa Tet-On 3G (Takara, cat no 631183) cell line expressing a bi-directional inducible LINE1 construct was generated as described in Xie, Y. et al. “Cell division promotes efficient retrotransposition in a stable L1 reporter cell line,” Mobile DNA (2013) 4:10. Single cell clones were screened for high Luciferase expression and the highest expression Firefly expressing clone was chosen for compound testing.
Test compound was serially diluted in DMSO and spotted in 96-well plates. Subsequently the HeLa L1 artificial-intron reporter cells were plated into the compound-containing wells (8,000 cells/well), and the cells were induced for reporter expression with doxycycline (Sigma cat no D9891) at a final concentration of 500 ng/mL. Luminescence was measured 72 h after plating using the Dual-Glo Luciferase Assay System (Promega cat no E2940) following the manufacturer's instructions. The Firefly Luciferase activity was used to report LINE1 activity.
In general terms: A reporter such as luciferase makes a cellular process visible.

Experiment [2] has as its system IFN-β production in PBMCs. Put plainly: Decitabine-stimulated human PBMC assay. In kind it is cell-based. The following applies: PBMCs with anti-CD3/anti-CD28 and 10 μM decitabine, 5 days. Here is the method:
EasySep buffer (32 mL, Stem Cell, cat. #20144) was used to dilute 8 mL of LRSC buffy coat (from fresh Leukopak) with gentle mixing. The diluted buffy coat (20 mL) was transferred into each of two SepMate 50 tubes, and the tubes were filled with 15 mL of Lyphoprep (Stem Cell, ct. #07851) density gradient. The SepMate tubes were then centrifuged at […] for 10 minutes at room temperature with the brake on. The top layer of supernatant was collected in SepMate tubes by quickly pouring it into a new 50 mL conical tube. The PBMCs were washed with EasySep buffer x2 by centrifuging at 300G for 5 minutes. The cells were resuspended in 30 mL of EasySep and centrifuged at 100G for 5 minutes with the brake off, and the platelets were removed. The cells were then resuspended in 6 mL of 1×RBC lysis buffer (InvitroGen) and incubated at 37° C. for 5 minutes. Then, 25 mL of EasySep buffer was mixed into the tube and it was centrifuged at 300G for 5 minutes. The cells were resuspended in 10 mL of EasySep buffer and the cells were then counted with Cellometer (AO/PI). The PBMCs were resuspended in RPMI1640 (ThermoFisher)+10% FBS (HyClone)+p/s at 3×10^6/mL. The PBMCs (100 μL, 300 k PBMCs) were then seeded in a 96-well flat bottom microplate (Corning) that had been precoated with 100 μL of anti-CD3 antibody (10 μg/mL in PBS, Biolegend) or PBS at 4° C., one day before the assay was commenced. […]

In experiment [3] the test system is interferon-stimulated gene (ISG) expression. Put plainly: In vivo decitabine challenge model. Also noted: species or system C57BL/6 mice. The note with it: islatravir p.o. 0.6, 2.0, 6.0 mg/kg once daily with decitabine i.p. 5 mg/kg, Day 0 to Day 4. Here is the method: Twenty 9-11 week old C57BL/6 mice were acclimated to the lab for at least 5 days. Islatravir was prepared in a 0.5% methylcellulose solution for p.o. administration. Decitabine (Sigma) was dissolved in sterile PBS (pH 7.4) and dosed within 30 minutes of preparation of the solution. Doses of both islatravir and decitabine were administered once a day, every day from Day 0 to Day 4. On Day 0, mice were split into four groups of five mice and given their first dose of decitabine (i.p., 5 mg/kg) and compound 23. Dosing groups were: [table] Decitabine and islatravir were administered daily from Day 0 to Day 4. All mice were euthanized 1 hour after the last dose administration on Day 4. Spleens, liver, and terminal colon were collected, along with plasma from each animal. The fold changes in interferon-stimulated gene (ISG) expression was calculated by first normalizing to GAPDH gene using the Delta CT method. The CT (gene of interest)—CT (reference gene) was calculated to generate a delta CT for all samples. The fold change was then calculated by taking the […](Delta CT(control)−Delta CT (experimental). The control in this example was the PBS control animal group. The Taqman duplex assay (Thermo Fisher 4331182 and 4448489) was used according to the manufacturer's instructions to determine levels of GAPDH v. IFIT2.

The test system of experiment [4] is FaDu cells. Put plainly: Cancer cell viability assay with 3D cell colonies (CellTiter-Glo), FaDu. It counts as cell-based. The following applies: Homo sapiens, FaDu, 168 h, 7 days. Here is the method: (§1) Ovarian cancer cell line SK-OV-3 cells were cultured in McCoy's 5a media containing 10% FBS. Ovarian cancer cell line OVCAR-8 cells were cultured in RPMI media containing 10% FBS. Additional cancer cell lines were cultured in the following media: • Ovarian cancer SW756 cells—L-15 (100% air)+10% FBS • Esophageal cancer TE-1 cells—RPMI-1640+10% FBS • Esophageal cancer KYSE-410 cells—RPMI-1640+5˜10% FBS • Esophageal cancer KYSE-70 cells—RPMI-1640+10% h.i.FBS. • Pharyngeal cancer FaDu cells—MEM+0.01 mM NEAA+10% FBS
(§2) Cell colony formation was tested using a 3D methylcellulose-based CellTiter-Glo (CTG) viability assay (Cat. No: G7573, Promega). Briefly, cells were inoculated into 96-well plates (at 1,500 cells per well) into a solution of 0.65% methylcellulose in growth media and incubated overnight at 37° C. in 5% CO2. The next day, serially diluted test compound (islatravir) or positive control (cisplatin, Cat. No. 6J015A89, Qilu Pharma) were added at the indicated concentrations, and the cells were incubated for 7 days. On day seven, 100 μL of CTG reagent was added, and the plates were incubated at room temperature for 20 min. Luminescence was read on an Envision Multi Label Reader according to manufacturer's instructions. IC50 values were determined using the following calculation: […]

The test system of experiment [5] is KYSE-70 cells. Kind of experiment: Cancer cell viability assay with 3D cell colonies (CellTiter-Glo), KYSE-70. It counts as cell-based. The note with it: Homo sapiens, KYSE-70, 168 h, 7 days. Here is the method:
as §1, §2
In general terms: In ATP-based viability assays light output follows the ATP content of the culture.

This note sets out measurements from US20250186475A1, “METHODS OF TREATING MEDICAL CONDITIONS USING ISLATRAVIR OR A RELATED COMPOUND” (ROME Therapeutics, Inc., priority 2022, published 2025).

T1 sequence (O00370 whole entry, looked up): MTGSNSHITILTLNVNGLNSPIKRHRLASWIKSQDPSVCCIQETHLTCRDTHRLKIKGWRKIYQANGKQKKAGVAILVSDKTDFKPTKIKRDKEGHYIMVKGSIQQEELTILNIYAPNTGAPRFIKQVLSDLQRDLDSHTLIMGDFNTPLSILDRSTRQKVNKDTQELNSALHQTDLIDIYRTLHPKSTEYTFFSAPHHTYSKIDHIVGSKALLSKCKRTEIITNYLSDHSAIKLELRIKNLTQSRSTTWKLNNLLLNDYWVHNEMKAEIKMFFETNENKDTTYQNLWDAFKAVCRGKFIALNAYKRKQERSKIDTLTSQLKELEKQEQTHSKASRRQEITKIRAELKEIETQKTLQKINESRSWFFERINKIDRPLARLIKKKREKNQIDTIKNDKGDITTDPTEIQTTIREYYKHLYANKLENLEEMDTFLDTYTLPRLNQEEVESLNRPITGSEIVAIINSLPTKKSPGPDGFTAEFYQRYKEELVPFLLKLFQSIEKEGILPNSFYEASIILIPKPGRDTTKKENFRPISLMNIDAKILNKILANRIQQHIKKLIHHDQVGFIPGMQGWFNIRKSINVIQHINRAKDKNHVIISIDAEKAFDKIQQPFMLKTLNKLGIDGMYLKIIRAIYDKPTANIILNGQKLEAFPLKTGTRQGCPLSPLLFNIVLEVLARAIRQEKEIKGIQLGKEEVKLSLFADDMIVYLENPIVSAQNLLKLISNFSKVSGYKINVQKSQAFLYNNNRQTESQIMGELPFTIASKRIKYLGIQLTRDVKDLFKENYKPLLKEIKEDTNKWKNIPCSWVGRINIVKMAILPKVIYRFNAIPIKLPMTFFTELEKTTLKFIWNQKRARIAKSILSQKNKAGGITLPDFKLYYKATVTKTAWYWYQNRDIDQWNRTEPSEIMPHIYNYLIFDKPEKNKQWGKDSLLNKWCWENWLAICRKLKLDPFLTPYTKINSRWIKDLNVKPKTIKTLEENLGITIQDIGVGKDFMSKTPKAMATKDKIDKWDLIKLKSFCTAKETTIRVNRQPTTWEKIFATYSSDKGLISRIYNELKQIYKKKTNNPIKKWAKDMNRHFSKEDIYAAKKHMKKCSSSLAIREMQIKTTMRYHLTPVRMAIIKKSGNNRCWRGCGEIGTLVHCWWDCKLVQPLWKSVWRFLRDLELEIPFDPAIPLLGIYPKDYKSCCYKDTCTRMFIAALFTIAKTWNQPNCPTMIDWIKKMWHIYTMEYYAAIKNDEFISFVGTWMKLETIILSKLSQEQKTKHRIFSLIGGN

A word on the IC50: it is the concentration that gives 50% inhibition. For the compound `C#C[C@]1(CO)O[C@@H](n2cnc3c(N)nc(F)nc32)C[C@@H]1O` [Islatravir, (2R,3S,5R)-5-(6-amino-2-fluoro-9H-purin-9-yl)-2-ethynyl-2-(hydroxymethyl)tetrahydrofuran-3-ol], the IC50 in experiment [1] was 0.00069 µM; in experiment [4], 10 to 30 µM; in experiment [5], 10 to 30 µM. Further, the “production of IFN-β” value in experiment [2] is listed as “activated production of IFN-β”. Moreover, in experiment [3], the “change in ISG response” value was “showed the change in ISG response”.
